This is an account of results in ChEMBL document CHEMBL3991601, “The target landscape of clinical kinase drugs” (Science, 2017).

Assay [1] concerns the target T1, Aurora kinase A (Homo sapiens, UniProt O14965).
T1 sequence (O14965 whole entry): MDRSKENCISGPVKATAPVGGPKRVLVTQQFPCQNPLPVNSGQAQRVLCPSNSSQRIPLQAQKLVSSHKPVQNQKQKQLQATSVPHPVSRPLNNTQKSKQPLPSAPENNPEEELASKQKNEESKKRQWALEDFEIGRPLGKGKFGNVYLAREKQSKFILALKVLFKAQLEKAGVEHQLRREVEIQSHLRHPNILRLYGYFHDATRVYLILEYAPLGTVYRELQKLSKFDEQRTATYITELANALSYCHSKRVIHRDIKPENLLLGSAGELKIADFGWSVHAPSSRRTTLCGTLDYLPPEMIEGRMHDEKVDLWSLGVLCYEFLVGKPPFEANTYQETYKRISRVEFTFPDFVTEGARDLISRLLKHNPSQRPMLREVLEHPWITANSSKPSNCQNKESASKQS

Assay [2] concerns the target T2, Glycine--tRNA ligase (Homo sapiens, UniProt P41250).
T2 sequence (P41250 whole entry): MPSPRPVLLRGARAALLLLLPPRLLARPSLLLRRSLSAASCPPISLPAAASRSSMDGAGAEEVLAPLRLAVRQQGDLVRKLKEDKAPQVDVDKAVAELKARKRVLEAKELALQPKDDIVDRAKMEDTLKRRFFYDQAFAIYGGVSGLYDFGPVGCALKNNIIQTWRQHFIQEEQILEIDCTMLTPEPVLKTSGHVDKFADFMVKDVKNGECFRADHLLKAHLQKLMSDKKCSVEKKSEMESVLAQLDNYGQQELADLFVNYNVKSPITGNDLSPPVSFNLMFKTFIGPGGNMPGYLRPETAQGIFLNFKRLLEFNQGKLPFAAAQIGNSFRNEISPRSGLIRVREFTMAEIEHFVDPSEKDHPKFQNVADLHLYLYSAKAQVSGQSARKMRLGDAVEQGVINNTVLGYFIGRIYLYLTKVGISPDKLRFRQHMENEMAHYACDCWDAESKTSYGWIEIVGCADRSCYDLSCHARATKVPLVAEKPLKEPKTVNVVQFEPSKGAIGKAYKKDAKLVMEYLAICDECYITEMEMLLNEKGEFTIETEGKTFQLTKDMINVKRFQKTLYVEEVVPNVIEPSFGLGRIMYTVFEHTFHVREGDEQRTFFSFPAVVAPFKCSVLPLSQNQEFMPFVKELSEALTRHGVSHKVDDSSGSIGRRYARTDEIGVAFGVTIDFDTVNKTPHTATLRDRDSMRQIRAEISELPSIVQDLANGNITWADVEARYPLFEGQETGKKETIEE

Assay [3] concerns the target T3, Scaffold protein ILK (Homo sapiens, UniProt Q13418).
T3 sequence (Q13418 whole entry): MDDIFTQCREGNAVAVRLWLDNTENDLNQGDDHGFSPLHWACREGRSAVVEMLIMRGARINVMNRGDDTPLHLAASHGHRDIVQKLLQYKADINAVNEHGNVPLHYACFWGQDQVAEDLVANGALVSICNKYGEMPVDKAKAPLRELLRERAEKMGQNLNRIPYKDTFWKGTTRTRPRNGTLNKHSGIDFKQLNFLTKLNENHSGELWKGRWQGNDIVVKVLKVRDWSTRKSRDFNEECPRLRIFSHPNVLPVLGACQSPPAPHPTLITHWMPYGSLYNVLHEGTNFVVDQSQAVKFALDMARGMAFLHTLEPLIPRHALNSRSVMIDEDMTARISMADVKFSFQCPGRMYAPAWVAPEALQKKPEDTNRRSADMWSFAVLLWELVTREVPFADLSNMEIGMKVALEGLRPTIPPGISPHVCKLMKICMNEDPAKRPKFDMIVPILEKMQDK

Assay [4] has as its target Mitogen-activated protein kinase 10 (Homo sapiens, UniProt P53779).
Assay [5] addresses Serine/threonine-protein kinase SIK3 (Homo sapiens, UniProt Q9Y2K2).
For assay [6], the target named is T4, General transcription and DNA repair factor IIH helicase subunit XPD (Homo sapiens, UniProt P18074).
T4 sequence (P18074 whole entry): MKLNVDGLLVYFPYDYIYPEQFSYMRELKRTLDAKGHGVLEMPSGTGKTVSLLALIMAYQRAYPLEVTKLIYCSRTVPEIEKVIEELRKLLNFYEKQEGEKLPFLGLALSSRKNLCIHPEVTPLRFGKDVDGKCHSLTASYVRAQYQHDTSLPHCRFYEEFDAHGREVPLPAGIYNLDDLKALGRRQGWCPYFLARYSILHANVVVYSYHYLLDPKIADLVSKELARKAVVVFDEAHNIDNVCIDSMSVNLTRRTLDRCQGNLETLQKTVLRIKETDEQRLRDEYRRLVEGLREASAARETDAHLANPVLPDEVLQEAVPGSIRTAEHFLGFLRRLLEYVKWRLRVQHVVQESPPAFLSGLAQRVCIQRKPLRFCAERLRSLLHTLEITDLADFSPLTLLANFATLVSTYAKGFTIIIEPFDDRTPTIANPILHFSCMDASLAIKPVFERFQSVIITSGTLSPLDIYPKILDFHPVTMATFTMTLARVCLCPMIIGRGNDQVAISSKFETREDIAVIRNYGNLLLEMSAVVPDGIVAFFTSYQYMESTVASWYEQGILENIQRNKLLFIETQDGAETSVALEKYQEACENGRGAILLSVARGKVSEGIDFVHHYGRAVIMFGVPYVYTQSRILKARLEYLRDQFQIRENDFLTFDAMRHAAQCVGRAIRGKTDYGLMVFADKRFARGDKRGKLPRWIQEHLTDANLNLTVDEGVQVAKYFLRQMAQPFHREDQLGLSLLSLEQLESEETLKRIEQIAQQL
The note with it: read-out: Kd apparent; k-562, colo 205, sk-n-be(2) and mv-4-11.

The source made the active and inactive calls. Cut-off read from the data, not from the text of the source, for most assays here: actives have a measured Kd and inactives only a lower limit.
Note: in the data inactive means no Kd found up to 30 µM.

Chain of Mitogen-activated protein kinase 10 (P53779 whole entry): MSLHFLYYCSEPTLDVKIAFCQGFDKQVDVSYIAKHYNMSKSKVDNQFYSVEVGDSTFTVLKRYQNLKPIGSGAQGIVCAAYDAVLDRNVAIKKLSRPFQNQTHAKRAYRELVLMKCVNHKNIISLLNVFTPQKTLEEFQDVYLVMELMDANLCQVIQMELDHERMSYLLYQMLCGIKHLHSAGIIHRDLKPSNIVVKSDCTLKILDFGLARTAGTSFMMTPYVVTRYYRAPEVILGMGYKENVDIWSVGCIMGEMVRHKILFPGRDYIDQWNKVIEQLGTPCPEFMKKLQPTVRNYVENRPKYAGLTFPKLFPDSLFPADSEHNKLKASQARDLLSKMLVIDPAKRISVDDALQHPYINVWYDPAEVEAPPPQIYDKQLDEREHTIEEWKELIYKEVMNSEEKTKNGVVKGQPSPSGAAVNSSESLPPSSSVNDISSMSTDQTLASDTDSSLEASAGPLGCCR
Chain of Serine/threonine-protein kinase SIK3 (Q9Y2K2 whole entry): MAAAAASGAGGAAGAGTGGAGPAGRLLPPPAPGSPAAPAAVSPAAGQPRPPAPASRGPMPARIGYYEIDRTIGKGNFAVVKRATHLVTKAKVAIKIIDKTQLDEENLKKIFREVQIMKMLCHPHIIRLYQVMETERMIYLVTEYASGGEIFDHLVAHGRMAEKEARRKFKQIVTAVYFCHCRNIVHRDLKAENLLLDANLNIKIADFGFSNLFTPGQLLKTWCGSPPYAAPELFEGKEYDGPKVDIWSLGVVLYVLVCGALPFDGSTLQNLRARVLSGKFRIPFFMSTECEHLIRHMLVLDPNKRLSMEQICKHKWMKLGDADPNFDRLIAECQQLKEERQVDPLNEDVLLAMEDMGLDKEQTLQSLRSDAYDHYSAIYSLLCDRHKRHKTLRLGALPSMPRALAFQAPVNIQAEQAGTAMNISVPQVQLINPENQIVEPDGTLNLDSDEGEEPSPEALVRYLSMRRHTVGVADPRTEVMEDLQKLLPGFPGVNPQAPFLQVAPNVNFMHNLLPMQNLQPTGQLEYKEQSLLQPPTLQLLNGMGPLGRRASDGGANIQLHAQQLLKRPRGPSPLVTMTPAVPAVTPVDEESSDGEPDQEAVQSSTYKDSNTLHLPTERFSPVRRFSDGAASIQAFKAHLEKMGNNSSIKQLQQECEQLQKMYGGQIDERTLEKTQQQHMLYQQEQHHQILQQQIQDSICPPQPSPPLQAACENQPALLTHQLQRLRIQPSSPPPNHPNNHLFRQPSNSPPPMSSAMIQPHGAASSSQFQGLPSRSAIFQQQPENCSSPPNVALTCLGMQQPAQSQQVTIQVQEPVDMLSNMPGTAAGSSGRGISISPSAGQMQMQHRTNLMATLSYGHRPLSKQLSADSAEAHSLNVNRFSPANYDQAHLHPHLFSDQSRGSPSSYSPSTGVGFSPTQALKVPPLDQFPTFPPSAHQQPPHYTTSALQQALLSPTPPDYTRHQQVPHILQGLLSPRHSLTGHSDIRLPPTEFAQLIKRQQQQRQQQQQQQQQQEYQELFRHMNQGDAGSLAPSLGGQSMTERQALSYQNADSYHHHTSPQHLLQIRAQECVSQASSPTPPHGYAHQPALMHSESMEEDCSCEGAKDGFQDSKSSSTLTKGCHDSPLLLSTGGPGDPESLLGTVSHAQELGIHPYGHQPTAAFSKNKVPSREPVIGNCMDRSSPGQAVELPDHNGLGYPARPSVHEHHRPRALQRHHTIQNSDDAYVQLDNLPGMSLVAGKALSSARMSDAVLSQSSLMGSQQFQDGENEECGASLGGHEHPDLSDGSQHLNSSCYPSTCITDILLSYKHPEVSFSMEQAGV

On to `Cc1cc(C(=O)Nc2cc(Oc3ccc4nc(NC(=O)C5CC5)cn4n3)ccc2C)n(C)n1` [TAK-593], for which the Kd in assay [1], in assay [2], in assay [3], in assay [4], in assay [5] and in assay [6] was > 30 µM (inactive) in each case.

Take `O=C(O)c1ccc2c(c1)nc(Nc1cccc(Cl)c1)c1ccncc12` [SILMITASERTIB]: the Kd in assay [1], in assay [2], in assay [3], in assay [4], in assay [5] and in assay [6] was > 30 µM (inactive) throughout.

On to `c1cc(OCCN2CCCCC2)cc(-c2n[nH]c3ccc(-c4nc[nH]n4)cc23)c1` [CC-401], for which the Kd is > 30 µM (inactive) in assay [1]; > 30 µM (inactive) in assay [2]; > 30 µM (inactive) in assay [3]; 3.24 µM (active) in assay [4]; > 30 µM (inactive) in assay [5]; > 30 µM (inactive) in assay [6].

Regarding `O=S(=O)(c1cccc2c(O)nccc12)N1CCCNCC1` [HYDROXYFASUDIL], the Kd in assay [1], in assay [2], in assay [3], in assay [4], in assay [5] and in assay [6] was > 30 µM (inactive) in each case.

For the molecule `O=c1[nH]c([C@@H]2CCCN2)nc2c1oc1ccc(Cl)cc12`, the Kd in assay [1], in assay [2], in assay [3], in assay [4], in assay [5] and in assay [6] was > 30 µM (inactive) in each case.

As to `Cc1c(Cn2c(C)nc3c(C(=O)O)cc(N4CCOCC4)cc32)cccc1C(F)(F)F` [GSK-2636771], the Kd in assay [1], in assay [2], in assay [3], in assay [4], in assay [5] and in assay [6] was > 30 µM (inactive) throughout.

For the molecule `COc1cc2ncnc(Nc3ccc(O)cc3)c2cc1OC` [WHI-P131], the Kd in assay [1], in assay [2], in assay [3], in assay [4], in assay [5] and in assay [6] was > 30 µM (inactive) in each case.

Regarding `Cn1c(=O)c(F)c(Nc2ccc(I)cc2F)c2c(=O)n(C[C@@H](O)CO)cnc21` [TAK-733], the Kd in assay [1], in assay [2], in assay [3], in assay [4], in assay [5] and in assay [6] was > 30 µM (inactive) each time.

Regarding `COCCN1CCN(Cc2ccc(-c3n[nH]c4c3C(=O)c3c(NC(=O)NN5CCOCC5)cccc3-4)cc2)CC1` [RGB-286638], the Kd in assay [1] was > 30 µM (inactive); in assay [2], > 30 µM (inactive); in assay [3], > 30 µM (inactive); in assay [4], 0.011 µM; in assay [5], > 30 µM (inactive); in assay [6] it was 0.456 µM (active).

As for `C[C@@H]1COC(Nc2ccc3ncnc(Nc4ccc(OCc5nccs5)c(Cl)c4)c3c2)=N1` [VARLITINIB], the Kd in assay [1], in assay [2], in assay [3], in assay [4], in assay [5] and in assay [6] was > 30 µM (inactive) each time.

As for `C=CCN(/C=C1/C(=O)O[C@H](COC)[C@@]2(C)C1=C(O)C(=O)C1=C2[C@H](OC(C)=O)C[C@]2(C)C(=O)CC[C@@H]12)CC=C` [SONOLISIB], the Kd in assay [1] was > 30 µM (inactive); in assay [2] it was > 30 µM (inactive); in assay [3], > 30 µM (inactive); in assay [4], > 30 µM (inactive); in assay [5] it was 0.011 µM; in assay [6], > 30 µM (inactive).
